Laboratory results from ChEMBL document CHEMBL3244235, “Relationships between opiate receptor binding and analgetic properties of prodine-type compounds” (1977).
Calls of active or inactive are those of the source. The calls are words filed in the database; no cut-off is given here.

Each compound was assayed against T1, Opioid receptor (Rattus norvegicus) (UniProt P33533+P34975+P33535) (assay: Displacement of specific [3H]dihydromorphine from opiate receptor in rat brain homogenates at 10^-5 M after 10 mins by scintillation counting).
Assay type: tissue-based

T1 sequence (P33533 whole entry, looked up): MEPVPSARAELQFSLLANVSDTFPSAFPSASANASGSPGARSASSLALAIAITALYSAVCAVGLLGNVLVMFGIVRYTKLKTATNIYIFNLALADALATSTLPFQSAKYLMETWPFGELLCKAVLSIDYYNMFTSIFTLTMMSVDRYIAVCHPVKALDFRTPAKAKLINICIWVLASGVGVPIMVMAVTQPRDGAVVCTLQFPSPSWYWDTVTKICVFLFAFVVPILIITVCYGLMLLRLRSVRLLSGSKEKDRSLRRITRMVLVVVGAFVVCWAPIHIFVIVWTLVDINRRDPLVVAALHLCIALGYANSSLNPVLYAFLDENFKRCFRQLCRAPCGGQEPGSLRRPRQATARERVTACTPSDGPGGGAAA
T1 sequence (P33535 whole entry, looked up): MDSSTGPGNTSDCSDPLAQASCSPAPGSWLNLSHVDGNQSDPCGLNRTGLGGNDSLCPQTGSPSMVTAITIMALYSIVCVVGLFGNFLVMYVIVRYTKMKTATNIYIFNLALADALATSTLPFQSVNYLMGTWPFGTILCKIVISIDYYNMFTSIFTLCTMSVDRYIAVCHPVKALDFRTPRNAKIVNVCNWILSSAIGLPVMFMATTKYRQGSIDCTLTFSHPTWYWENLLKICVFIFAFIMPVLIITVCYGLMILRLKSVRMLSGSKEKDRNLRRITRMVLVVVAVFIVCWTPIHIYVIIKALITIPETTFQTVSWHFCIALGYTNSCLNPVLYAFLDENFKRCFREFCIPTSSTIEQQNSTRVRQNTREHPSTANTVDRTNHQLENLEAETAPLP
T1 sequence (P34975 whole entry, looked up): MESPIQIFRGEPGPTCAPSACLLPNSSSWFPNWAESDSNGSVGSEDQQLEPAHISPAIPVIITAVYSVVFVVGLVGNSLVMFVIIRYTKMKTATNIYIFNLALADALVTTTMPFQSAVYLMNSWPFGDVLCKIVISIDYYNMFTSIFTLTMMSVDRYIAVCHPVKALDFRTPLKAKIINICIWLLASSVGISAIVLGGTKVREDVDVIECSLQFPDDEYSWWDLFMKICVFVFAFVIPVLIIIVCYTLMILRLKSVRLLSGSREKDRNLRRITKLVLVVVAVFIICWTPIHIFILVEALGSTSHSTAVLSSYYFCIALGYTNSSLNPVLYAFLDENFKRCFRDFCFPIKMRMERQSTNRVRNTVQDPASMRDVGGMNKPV

Row | Compound | inhibition
1 | CCCCCC[C@H]1CN(C)CC[C@]1(OC(=O)CC)c1ccccc1.Cl (relative stereo) | Active

The compounds below were run against T1, Opioid receptor (Rattus norvegicus) (assay: Displacement of nonspecific [3H]dihydromorphine from opiate receptor in rat brain homogenates at 10^-5 M after 10 mins by scintillation counting).
Assay type: tissue-based

Row | Compound | inhibition
2 | CCCCCC[C@H]1CN(C)CC[C@]1(OC(=O)CC)c1ccccc1.Cl (relative stereo) | Active

Each compound was assayed on Mus musculus (assay: Analgesic activity in sc dosed mouse by hot plate method).
Assay type: functional

Row | Compound | ED50 [mg/kg]
3 | C=CCC1CN(C)CCC1(OC(=O)CC)c1ccccc1.Cl (configuration not stated) | 0.03
4 | CCC(=O)O[C@]1(c2ccccc2)CCN(C)C[C@@H]1CC.Cl (relative stereo) | 0.4
5 | CCC(=O)O[C@]1(c2ccccc2)CCN(C)C[C@@H]1C.Cl (relative stereo) | 0.92
6 | CCC(=O)O[C@]1(c2ccccc2)CCN(C)C[C@H]1C.Cl (relative stereo) | 0.18
7 | CCC(=O)O[C@]1(c2ccccc2)CCN(C)C[C@H]1CC.Cl (relative stereo) | 3.5
8 | C=CC[C@H]1CN(C)CC[C@]1(OC(=O)CC)c1ccccc1.Cl (relative stereo) | 0.09
9 | C=CC[C@@H]1CN(C)CC[C@]1(OC(=O)CC)c1ccccc1.Cl (relative stereo) | 11.7
10 | CCCCCC[C@H]1CN(C)CC[C@]1(OC(=O)CC)c1ccccc1.Cl (relative stereo) | 80
11 | CCCCCC[C@@H]1CN(C)CC[C@]1(OC(=O)CC)c1ccccc1.Cl (relative stereo) | 54.4
12 | CN1CC[C@]23c4c5ccc(O)c4O[C@H]2[C@@H](O)C=C[C@H]3[C@H]1C5.Cl [MORPHINE HYDROCHLORIDE] | 1.2
